Measured values from article PMC6747015, “Structure–function study of a novel inhibitor of the casein kinase 1 family in Arabidopsis thaliana” (Plant Direct, 2019).
Entries after “also recorded” stand apart in the source; their conditions may differ. Like-named read-outs stand apart in the source and are kept apart here.

What was measured:
Recombinant CKL4 kinase = molecular target: T1, Recombinant CKL4 kinase (Arabidopsis thaliana, UniProt Q8LPI7); test: In vitro phosphorylation assay of CKL4 (32P phosphorylation of casein); type: biochemical
T1 sequence (Q8LPI7 1-414): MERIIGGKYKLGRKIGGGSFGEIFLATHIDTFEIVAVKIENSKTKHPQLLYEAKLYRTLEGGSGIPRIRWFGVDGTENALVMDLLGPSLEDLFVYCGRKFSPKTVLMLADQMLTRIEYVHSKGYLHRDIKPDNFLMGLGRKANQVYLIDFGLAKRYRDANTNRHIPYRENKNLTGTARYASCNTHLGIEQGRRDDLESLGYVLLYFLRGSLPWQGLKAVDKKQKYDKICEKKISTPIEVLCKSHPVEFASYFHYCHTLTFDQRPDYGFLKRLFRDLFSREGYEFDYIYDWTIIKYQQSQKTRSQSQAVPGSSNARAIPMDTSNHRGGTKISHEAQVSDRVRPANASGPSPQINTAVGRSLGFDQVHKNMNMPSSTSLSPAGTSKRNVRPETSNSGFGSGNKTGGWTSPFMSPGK
Method: In vitro phosphorylation assays using recombinant CKL4 were performed as described previously (Uehara et al., 2019), with synthetic small molecules. IC261 and PF‐670462 were purchased (Sigma‐Aldrich catalog numbers I0658 and SML0795, respectively). PHA767491 was synthesized as previously described (Uehara et al., 2019). All chemical compounds were dissolved in dimethyl sulfoxide (DMSO) as 10 mM stock solutions. Stock solutions were diluted with DMSO to the working concentration and added to assays in kinase reaction buffer (Uehara et al., 2019).
The activities of three known CK1 inhibitors were measured in vitro by a previously reported method (Uehara et al., 2019). Recombinant CKL4 kinase, casein, ^32P‐ATP, and different concentrations of the inhibitors were combined in a reaction buffer and kept at 37°C for 2 hr. Resulting samples were separated on a polyacrylamide gel by electrophoresis, and ^32P phosphorylation of casein was measured as an indicator of CKL4 kinase activity. IC50 (half‐maximal inhibitory concentration) was determined by calculating the results from at least two independent experiments. […] The stronger in vitro CK1 inhibitory activity shown by PF‐670462 relative to PHA767491 was consistent with previous reports (Uehara et al., 2019).

CCA1:LUC seedlings [1] = test: Bioluminescence-based circadian period lengthening in CCA1:LUC seedlings; type: in vivo, Arabidopsis thaliana; details: for Period‐lengthening activity (in words) / Concentration required for 2‐hr period lengthening (2hLC) / Concentration required for 5‐hr period lengthening (5hLC): CCA1:LUC seedlings; for Concentration required for 2‐hr period lengthening (2hLC) / Concentration required for 5‐hr period lengthening (5hLC): constant light
Method: Bioluminescence‐based circadian rhythms of CCA1:LUC plants treated with small molecules were analyzed by auto‐luminescence detection (Churitsu CL96) as described previously (Uehara et al., 2019). Period length was automatically calculated as previously described (Kamioka et al., 2016).
To estimate CK1 inhibitor activity in vivo, we choose to measure circadian period‐lengthening activity in Arabidopsis seedlings. The assay was made more efficient by monitoring the circadian period using a clock reporter plant line (CCA1:LUC) and an automated luminometer. These tools can be used to measure the circadian period with high confidence, and estimates of in vivo CK1 inhibitor activity are quantitative (Uehara et al., 2019). Four‐day‐old CCA1:LUC seedlings grown under 12‐hr light/12‐hr dark conditions were treated with IC261, PF‐670462, and PHA767491 at different concentrations, and seedling luminescence was monitored under constant light conditions. Dimethyl sulfoxide (DMSO), the solvent used for all of the CK1 inhibitors, was used as a control. IC261 lengthened the circadian period of CCA1:LUC seedlings in a dose‐dependent manner (Figure 1d), with a 2‐hr period lengthening at 500 µM. PF‐670462 and PHA767491 treatment concentrations also correlated with period lengthening (Figure 1e and f). The concentrations required for 2‐hr lengthening effects were 90 µM for PF‐670472 and 47 µM for PHA767491, which was consistent with previous work (Uehara et al., 2019). Thus, PHA767491 was the strongest in vivo CK1 inhibitor among the three inhibitors tested.

GR60ox2 and CPD = test: RT-qPCR of the ATSK downstream genes GR60ox2 and CPD; type: in vivo, Arabidopsis; details: 10 or 50 µM, 6 hr
Method: […] Three biological replicates were used for each assay. Harvested seedlings were frozen in liquid nitrogen and crushed with zirconia beads in a Tissue Lyser II, and RNA was isolated with Illustra RNAspin (25‐0500‐72, GE Healthcare). RT‐qPCR was performed as described previously (Nakamichi et al., 2010) using an Eco Real‐Time PCR System (Illumina). Gene expression was normalized against IPP2, and maximal values were set to 1. Primers for detecting IPP2, PRR7, GR60ox2, and CPD were described previously (De Rybel et al., 2009; Kamioka et al., 2016).
Because the ATSK family was identified by the molecular probe assay as potential targets of AMI‐331, even though the affinities between AMI‐331 and ATSKs were not as high as between AMI‐331 and CK1, […] affects the expression of genes downstream of ATSKs (De Rybel et al., 2009). […]

PRR7 = test: RT-qPCR of the CK1 downstream gene PRR7; type: in vivo, Arabidopsis; details: 10 and 50 µM, 6 hr
Method: Arabidopsis Col‐0 seedlings that had been grown under constant light conditions for […] were immersed in 10 or 50 µM of the GSK‐3, SHAGGY‐related, and BIN2 kinase inhibitor Bikinin (SML0094, Sigma) (De Rybel et al., 2009), […], or DMSO as control for 6 hr. Three biological replicates were used for each assay. Harvested seedlings were frozen in liquid nitrogen and crushed with zirconia beads in a Tissue Lyser II, and RNA was isolated with Illustra RNAspin (25‐0500‐72, GE Healthcare). RT‐qPCR was performed as described previously (Nakamichi et al., 2010) using an Eco Real‐Time PCR System (Illumina). Gene expression was normalized against IPP2, and maximal values were set to 1. Primers for detecting IPP2, PRR7, GR60ox2, and CPD were described previously (De Rybel et al., 2009; Kamioka et al., 2016).
Because the ATSK family was identified by the molecular probe assay as potential targets of AMI‐331, even though the affinities between AMI‐331 and ATSKs were not as high as between AMI‐331 and CK1, we used the ATSK inhibitor Bikinin to determine if AMI‐331 treatment affects the expression of genes downstream of ATSKs (De Rybel et al., 2009). Four‐day‐old Arabidopsis seedlings grown under constant light conditions were treated with Bikinin or AMI‐331 for 6 hr, and mRNA extracted from seedlings samples was analyzed by RT‐qPCR.

CCA1:LUC seedlings [2] = system: CCA1:LUC seedlings; design: method as in Uehara et al., 2019; details: ref Uehara et al., 2019; cited from earlier work
PRR5 and TOC1 = system: PRR5 and TOC1; design: method as in Uehara et al., 2019; details: ref Uehara et al., 2019; cited from earlier work
[3] = recombinant CKL4, casein, 32P‐ATP, 37°C for 2 hr, read-out: IC50 for in vitro CKL4 kinase activity

In the case of `Nc1nccc(-c2c(-c3ccc(F)cc3)ncn2C2CCCCC2)n1` [PF‐670462, reference compound], the IC50 (Recombinant CKL4 kinase; [3]) is reported as 800 nM.
In the case of `CCn1c(-c2ccncc2)cc2c1CCNC2=O` [AMI‐126], the “Period‐lengthening activity (in words)” value (CCA1:LUC seedlings [1]) is reported as “strong activity”.
With `O=C1NCCc2[nH]c(-c3ccncc3)c(Cl)c21` [AMI‐24] the “Period‐lengthening activity (in words)” value (CCA1:LUC seedlings [1]) was “Strong activities”.
`COc1cc(OC)c(C=C2C(O)=Nc3ccccc32)c(OC)c1` [IC261, reference compound] showed an IC50 (Recombinant CKL4 kinase) of 6700 nM.
With `O=C1NCCc2[nH]c(-c3ccncc3)c(Br)c21` [AMI‐23] the “Period‐lengthening activity (in words)” value (CCA1:LUC seedlings [1]) was “Strong activities”, the “Concentration required for 2‐hr period lengthening (2hLC)” value (“Concentration required … (2hLC)” for short) (CCA1:LUC seedlings [1]) was 1.5 µM and the “Concentration required for 5‐hr period lengthening (5hLC)” value (CCA1:LUC seedlings [1]) was 5.0 µM. For the same compound, the IC50 (Recombinant CKL4 kinase; [3]) was 700 nM.
For `O=C(O)CCC(=O)Nc1ccc(Br)cn1` [Bikinin, reference compound], the “GR60ox2 and CPD transcript abundance” value (GR60ox2 and CPD) is listed as “reduced”, the PRR7 transcript abundance (PRR7) is listed as “did not affect” and the “Period lengthening on inhibition of ATSKs” value (CCA1:LUC seedlings [2]) is listed as “did not result in period lengthening”.
In the case of `Cl.O=C1NCCc2[nH]c(-c3ccncc3)cc21` [PHA767491, 1,5,6,7‐tetrahydro‐2‐(4‐pyridinyl)‐4H‐pyrrolo[3,2‐c]pyridin‐4‐one hydrochloride], the “Effective concentration of PHA767491 as CK1 inhibitor in plants” value (CCA1:LUC seedlings [2]) is listed as “more than 40 µM”, the “Effective concentrations for PRR5 or TOC1 accumulation” value (PRR5 and TOC1) is listed as 250 to 500 µM and the IC50 (Recombinant CKL4 kinase; [3]) is listed as 5900 nM.
In the case of `C#CCn1c(-c2ccncc2)cc2c1CCNC2=O` [AMI‐212], the “Period‐lengthening activity (in words)” value (CCA1:LUC seedlings [1]) is reported as “weak period‐lengthening activity; also recorded: stronger period‐lengthening activity than AMI‐126”, the “Concentration required … (2hLC)” value (CCA1:LUC seedlings [1]) is reported as “around 7.0 µM” and the “Concentration required for 5‐hr period lengthening (5hLC)” value (CCA1:LUC seedlings [1]) is reported as 26 µM. The “Concentration required … (2hLC)” value (CCA1:LUC seedlings [1]; listed as AMI-212) was 7.0 µM, the “Period‐lengthening (in vivo inhibitory) activity relative to PHA767491” value (CCA1:LUC seedlings [1]; compared with parent PHA767491) was “approximately fivefold higher” and the IC50 (Recombinant CKL4 kinase; [3]) was 1200 nM.
In the case of `Cc1c(-c2ccncc2)[nH]c2c1C(=O)NCC2` [AMI‐217], the “Period‐lengthening activity (in words)” value (CCA1:LUC seedlings [1]) is reported as “Strong activities”.
For `Cl.O=C1NCCc2c1cc(-c1ccncc1)n2CCn1cccc1` [AMI‐118], the “Period‐lengthening activity (in words)” value (CCA1:LUC seedlings [1]) was “weak period‐lengthening activity”.
